Patent EP3097904A1, “DEPIGMENTING AGENTS TO LIGHTEN THE SKIN” (priority 2015, dated 2016)

Legend:
Tyrosinase = Tyrosinase activity in lysates of treated melanocytes (L-DOPA oxidation); format: cell-based, murine; conditions: 48 hours; PBPE 20 µM, tesmilifene 10 µM, umbelliprenin 40 µM; cell lysate, percentage of control (Figure 6)
Procedure: Tyrosinase activity was measured using a previously reported procedure (Ando H, J. Lipid Res., 1999, 40, p. 1312). […] The cell pellet was washed twice with phosphate buffer saline, transferred in an Eppendorf vial and centrifuged at 5000 g for 5 minutes at 4°C. The supernatant was discarded. Cell lysis was performed with an aqueous solution of sodium deoxycholate 0.5% (1 mL per cell pellet). The suspension was incubated at 0°C for 15 minutes and then 3 mL of a freshly prepared solution of L-DOPA (0.1% w/w) in phosphate buffer at 0.1 M (pH 6.8) was added to the cell lysate. The mixture was incubated at 37°C for 10 min. Tyrosinase activity was measured with a spectrophotometer to quantify the oxidation of L-DOPA to DOPAchrome. The absorbance was measured at 475 nm. The tyrosinase activity was expressed as a percentage of control (=100%). Control corresponds to the tyrosinase activity measured in the cell lysate from normal murine melanocytes treated with carrier solvent. Melanin content of treated murine melanocytes was also measured as described in example 4.

[1] = test system: normal murine melanocytes; assay: Melanin content in normal murine melanocytes (basal); format: cell-based; conditions: 48 hours; for melanin content: increasing doses, expressed as percentage of control (Figures 1, 2)
Procedure: (§1) Normal murine melanocytes were seeded and treated for 48 hours with increasing doses of umbelliprenin, 100µM of kojic acid (KA) or carrier solvent (DMSO). […] The cell pellet was washed twice with phosphate buffer saline, transferred in an Eppendorf vial and centrifuged at 5000 g for 5 minutes at 4°C. The supernatant was discarded. 200 µL of water and 1 mL of EtOH/Ether (1/1) were added to precipitate melanin. The mixture was incubated for 15 minutes at room temperature, centrifuged at 5000 g for 5 minutes and the supernatant was discarded. The precipitate was solubilized by 300 µL of a mixture of aqueous sodium hydroxide (1 M)/DMSO 90/10 after heating at 80°C for 1 hour. The absorbance was measured at 405 nm. The melanin content was expressed as a percentage of control (=100%).
Normal murine melanocytes were seeded and treated for 48 hours with increasing doses of PBPE, tesmilifene (Tes) or carrier solvent (ethanol).
Normal murine melanocytes were seeded and treated for 48 hours with fixed doses of PBPE, tesmilifene, umbelliprenin or a combination of those, or carrier solvent (DMSO for umbelliprenin, ethanol for tesmilifene or PBPE and EtOH/DMSO 1/1 for the combination).
The cell pellet was washed twice with phosphate buffer saline, transferred in an Eppendorf vial and centrifuged at 5000 g for 5 minutes at 4°C. The supernatant was discarded. Cell lysis was performed with an aqueous solution of sodium deoxycholate 0.5% (1 mL per cell pellet). The suspension was incubated at 0°C for 15 minutes and then 3 mL of a freshly prepared solution of L-DOPA (0.1% w/w) in phosphate buffer at 0.1 M (pH 6.8) was added to the cell lysate. The mixture was incubated at 37°C for 10 min. Tyrosinase activity was measured with a spectrophotometer to quantify the oxidation of L-DOPA to DOPAchrome. The absorbance was measured at 475 nm. The tyrosinase activity was expressed as a percentage of control (=100%). Control corresponds to the tyrosinase activity measured in the cell lysate from normal murine melanocytes treated with carrier solvent.

[2] = test system: normal murine melanocytes; assay: Cytotoxicity, trypan blue cell viability; conditions: 24, 48 and 72 hours; PBPE 20 µM, tesmilifene 10 µM, umbelliprenin 40 µM (Figure 9)
Procedure: Normal murine melanocytes were seeded and treated for 24, 48 and 72 hours with PBPE (20 µM), tesmilifene (10 µM), umbelliprenin (40 µM) or carrier solvent (DMSO for umbelliprenin and ethanol for tesmilifene or PBPE). Cells were detached by trypsinization, collected in phosphate buffer saline and centrifuged at 1500 rpm for 5 minutes at 4°C. Cells pellets were resuspended in the trypan blue solution (0.25%, w/v in PBS) and counted in a Malassez cell under a light microscope. The percentage of cell viability was calculated using the following formula: % cell viability = [1-(blue cells/total cells)] x 100 [formula]

[3] = test system: melanogenic genes (Tyrosinase, Mitf, TRP-1 and TRP-2); assay: Expression of genes encoding melanogenic proteins (RT-qPCR); format: cell-based, murine; conditions: 48 hours; PBPE 20 µM, tesmilifene 10 µM, umbelliprenin 40 µM (Figure 8)
Procedure: We then performed RNA extraction. We added Trizol® (1 ml) on treated cells. After incubation (5 minutes at room temperature), we transferred the cells suspension into Eppendorf vial. Chloroform (200 µl at 4°C) was added, the mixture was manually stirred for 15 seconds, incubated for 5 minutes at room temperature and then centrifuged at 16000 g for 10 minutes at 4°C. Aqueous colorless layer was collected and isopropanol (500 µL at -20°C) was added. The mixture was manually stirred for 15 seconds, incubated for 15 minutes at room temperature and the centrifuged at 16200 g for 10 minutes at 4°C. The supernatant was discarded and the precipitate was washed with 1 mL of EtOH/H2O (3/1) at -20°C. The mixture was centrifuged at 16000 g for 10 minutes at 4°C, the supernatant discarded and the pellet was allowed to dry for 10 minutes at room temperature. The pellet was dissolved in RNAse-free water (30 µL). The amount and purity of RNA was determined by measuring the absorbance at 230, 260 and 280 nm with a nanodrop ND-1000 spectrophotometer (Thermo Scientific) according to the manufacturer's instructions.
We then performed RT-qPCR experiment. We prepared a mixture containing RNA (1 µg), reverse transcriptase (1 µL), the reaction mixture « iScript®5x » (4 µL) and RNAse-free water (qsp 20 µl). The mixture was vortexed, centrifuged for few seconds and then introduced into a thermocycler. Reverse transcription was performed using the following program : 5 min at 25°C, 30 min at 42°C and then 5 min at 85°C. Eppendorf vial was maintained at 4°C until the beginning of the qPCR experiment. We then examined the expression of melanogenic genes (Tyrosinase, Mitf, TRP-1 and TRP-2) and housekeeping genes (glyceraldehyde 3-phosphate dehydrogenase and Cyclophiline A1) by qPCR. For this purpose, cDNA was diluted with RNAse-free water (180 µL) and then we prepared a mixture containing: primers, Syber Green® and RNAse-free water. We mixed in a 96-well plate cDNA (5 µL) and the mixture (20 µL). […]

[4] = test system: normal murine melanocytes treated with alpha melanocyte stimulating hormone (α-MSH); assay: Melanin content in melanocytes treated with α-MSH; format: cell-based; conditions: 48 hours, α-MSH 100 nM; PBPE 20 µM, tesmilifene 10 µM, umbelliprenin 40 µM (Figure 3)
Procedure: as §1

[5] = test system: normal murine melanocytes exposed to ultraviolet (UV-B) irradiation; assay: Melanin content in melanocytes exposed to UV-B irradiation; format: cell-based; conditions: UV-B 20 mJ/cm^2; PBPE 20 µM, tesmilifene 10 µM, umbelliprenin 40 µM (Figure 4)
Procedure: as §1

[6] = test system: normal murine melanocytes; assay: Whitening effect on melanocyte cell pellet (photograph); format: cell-based; conditions: umbelliprenin 40 µM, 48 hours (Figure 7)
Procedure: Normal murine melanocytes were seeded and treated for 48 hours with umbelliprenin (40 µM) or carrier solvent (DMSO). […] Cells pellet was washed with phosphate buffer saline, centrifuged and the supernatant was discarded. Cell pellets were then photographed.

[7] = PBPE 20 µM, tesmilifene 10 µM, umbelliprenin 40 µM vs kojic acid 100 µM (Figure 6)

| Compound | tyrosinase activity (Tyrosinase) | melanin content [1] | diminution of melanin content compared with kojic acid [1, 7] | cell viability [2] | expression of melanogenic genes [3] | melanin content in presence of α-MSH [4] | melanin content after UV-B irradiation [5] | appearance of melanocytes (cell pellet) versus carrier solvent [6] | diminution of melanin content compared with kojic acid ([1]; increasing doses of umbelliprenin vs 100µM kojic acid (Figure 1)) |
| --- | --- | --- | --- | --- | --- | --- | --- | --- | --- |
| c1ccc(Cc2ccc(OCCN3CCCC3)cc2)cc1 [PBPE] | decrease tyrosinase activity levels | significantly decrease melanin content in a dose dependent manner | higher | no significant impact | this effect was not observed | inhibits the melanogenic effect of α-MSH | inhibits the melanogenic effect of UV-B |  |  |
| CCN(CC)CCOc1ccc(Cc2ccccc2)cc1 [tesmilifene] | decrease tyrosinase activity levels | significantly decrease melanin content in a dose dependent manner | higher |  | this effect was not observed | inhibits the melanogenic effect of α-MSH | inhibits the melanogenic effect of UV-B |  |  |
| CC(C)=CCC/C(C)=C/CC/C(C)=C/COc1ccc2ccc(=O)oc2c1 [umbelliprenin] | decrease tyrosinase activity levels | significantly decreases melanin content in a dose dependent manner | higher |  | significantly repressed | inhibits the melanogenic effect of α-MSH | inhibits the melanogenic effect of UV-B | much lighter | higher |
